In publication PMC12016938, “A small molecule PKCε inhibitor reduces hyperalgesia induced by paclitaxel or opioid withdrawal” (JCI Insight, 2025):
Where “and” joins values, the source holds several entries; their conditions need not be identical. Identical values can stand only once. Counter-ions that a name gives are not always drawn.

Tested on: self-administration (addictive potential)
Assay: I.v. self-administration of CP612, between-session progressive ratio and demand curve
Experimental: We tested the addictive potential of CP612 by examining the extent to which rats are willing to work to obtain CP612. Rats were initially trained to self-administer either saline, morphine (500 μg/kg/i.v. infusion), or 1 of 3 different doses of CP612 (75, 150, or 300 μg/kg/i.v. infusion) for 4 days at fixed ratio 1 (FR1, where 1 nose poke delivers 1 infusion).
During the second phase, the ratio to obtain an infusion increased geometrically every other day (FR1, FR3, FR6, FR12, FR24, FR48, and FR96).
Data (number of self-infusions) were also fitted in an economic-demand curve, which provides an estimate of the motivation to obtain drugs and their addictive potential ([20]). We measured elasticity (α), which is the relative change in consumption as a function of price (i.e., ratio of nose pokes required to obtain an infusion). Behavior is considered “inelastic” when consumption is insensitive to price and “elastic” when consumption is sensitive to price. We also measured Pmax, which is the price at which intake switches from inelastic to elastic. […] (Figure 8B).
Rats not immediately anesthetized were eliminated from the study.
Following this initial acquisition phase at FR1, the ratio to obtain the drug was increased geometrically every other day: FR3 (3 nose pokes are required to obtain 1 infusion of morphine), FR6, FR12, FR24, FR48, and FR96. This allows for analysis of drug consumption as a function of “price” using demand curves for behavioral economics, which can estimate the motivation to obtain drugs and their “addictive potential” ([20]). For this, data from each rat were fitted to the equation log Q = log Q0 + k (e ^–α(Q0 ^C) – 1), where Q represents consumption (number of self-infusions), and Q0 represents the level of consumption at the lowest price. C represents price for the drug (i.e., the ratio), and k is set to a constant accounting for the estimated range of consumption in logarithmic units (k = 4 in these studies). The symbol α is the relative change in consumption across changes in price (ratio). Behavior is considered “inelastic” when consumption is insensitive to price (i.e., the curve is flat, and consumption is maintained despite increases in price), and it switches to “elastic” when consumption is sensitive to price (i.e., when the curve is steep and consumption declines with increases in price). […] We also compared groups for their average intake in the consumption-price curves by measuring α (elasticity) and Pmax.

[1] = individual rat values, drug self-administered

## CN1CC[C@]23c4c5ccc(O)c4O[C@H]2[C@@H](O)C=C[C@H]3[C@H]1C5 [Morphine, Morphine sulfate, reference compound]
FR1 to FR96, CP612 75, 150, 300 or morphine 500 μg/kg/i.v. infusion
  Responding in the active hole when the ratio to obtain an infusion increased: increased responding
FR1 to FR96, compared with saline
  Number of self-infusions when the ratio to obtain an infusion increased: did not significantly decrease
[1]
  D1 AH (FR1): 7 and 9 and 15
  D1 AH (FR3): 23 and 18 and 20
  D1 AH (FR6): 51 and 24 and 47
  D1 AH (FR12): 97 and 70 and 72
  D1 AH (FR24): 143 and 139 and 168
  D1 AH (FR48): 113 and 164 and 127
  D1 AH (FR96): 127 and 137 and 133
  D1 IH (FR1): 1 and 12 and 2
  D1 IH (FR3): 9 and 12 and 5
  D1 IH (FR6): 0 and 9 and 7
  D1 IH (FR12): 2 and 15 and 20
  D1 IH (FR24): 7 and 9 and 20
  D1 IH (FR48): 13 and 28
  D1 IH (FR96): 7 and 33
  D1 Inf (FR1): 6 and 7 and 10
  D1 Inf (FR3): 7 and 5 and 6
  D1 Inf (FR6): 8 and 4 and 7
  D1 Inf (FR12): 8 and 5 and 6
  D1 Inf (FR24): 5 and 6
  D1 Inf (FR48): 2 and 3
  D1 Inf (FR96): 1
  D1 Latency (FR1): 1.5 and 1.4 and 2.3
  D1 Latency (FR3): 0.38 and 0.7 and 0.267
  D1 Latency (FR6): 0.2 and 0.317 and 0.6
  D1 Latency (FR12): 1.6 and 0.6 and 1.7
  D1 Latency (FR24): 1.3 and 0.5 and 0.26
  D1 Latency (FR48): 0.367 and 0.26 and 1.1
  D1 Latency (FR96): 1.0 and 1.1 and 0.7
  D2 AH (FR1): 5 and 7 and 12
  D2 AH (FR3): 25 and 23 and 26
  D2 AH (FR6): 59 and 60 and 46
  D2 AH (FR12): 118 and 94 and 104
  D2 AH (FR24): 143 and 151 and 176
  D2 AH (FR48): 163 and 134 and 158
  D2 AH (FR96): 106 and 145 and 179
  D2 IH (FR1): 8 and 6 and 2
  D2 IH (FR3): 1 and 11 and 13
  D2 IH (FR6): 9 and 8
  D2 IH (FR12): 8 and 7
  D2 IH (FR24): 11 and 7 and 20
  D2 IH (FR48): 19 and 11
  D2 IH (FR96): 6 and 16
  D2 Inf (FR1): 5 and 6 and 9
  D2 Inf (FR3): 8 and 6
  D2 Inf (FR6): 8 and 9 and 7
  D2 Inf (FR12): 9 and 6 and 7
  D2 Inf (FR24): 5 and 6 and 7
  D2 Inf (FR48): 3 and 2
  D2 Inf (FR96): 1
  D2 Latency (FR1): 0.458 and 1.3 and 0.3
  D2 Latency (FR3): 0.25 and 0.473 and 0.4
  D2 Latency (FR6): 3.2 and 1.4 and 0.647
  D2 Latency (FR12): 0.127 and 0.277 and 0.753
  D2 Latency (FR24): 3.0 and 1.6
  D2 Latency (FR48): 0.218 and 0.3 and 0.9
  D2 Latency (FR96): 0.5 and 0.28 and 1.1
  D3 AH (FR1): 8 and 11 and 13
  D3 IH (FR1): 3 and 5 and 0
  D3 Inf (FR1): 6 and 7 and 9
  D3 Latency (FR1): 0.6 and 2.1 and 0.053
  D4 AH (FR1): 10 and 12 and 11
  D4 IH (FR1): 0 and 4 and 2
  D4 Inf (FR1): 7 and 9
  D4 Latency (FR1): 0.13 and 0.6 and 0.632
  last AH (FR1): 7 and 8 and 14
  last IH (FR1): 3 and 2 and 4
  last Inf (FR1): 6
  last Latency (FR1): 0.34 and 0.452 and 0.9
  last-1 AH (FR1): 10 and 12 and 11
  last-1 IH (FR1): 0 and 4 and 2
  last-1 Inf (FR1): 7 and 9
  last-1 Latency (FR1): 0.13 and 0.6 and 0.632
  last-2 AH (FR1): 8 and 11 and 13
  last-2 IH (FR1): 3 and 5 and 0
  last-2 Inf (FR1): 6 and 7 and 9
  last-2 Latency (FR1): 0.6 and 2.1 and 0.053
  last-3 AH (FR1): 5 and 7 and 12
  last-3 IH (FR1): 8 and 6 and 2
  last-3 Inf (FR1): 5 and 6 and 9
  last-3 Latency (FR1): 0.458 and 1.3 and 0.3
Morphine 500 μg/kg/i.v. infusion
  Pmax (price at which intake switches from inelastic to elastic): 50.1
morphine, individual rats
  AVG AH (FR3): 43.5 and 29.0 and 31.0 and 18.0 and 18.5 and 24.0
  AVG AH (FR6): 43.5 and 53.5 and 45.5 and 38.5 and 31.0 and 21.0
  AVG AH (FR12): 62.0 and 88.0 and 64.5 and 104.0 and 39.0 and 41.5
  AVG AH (FR24): 164.5 and 149.5 and 79.5 and 187.0 and 122.5 and 61.0
  AVG AH (FR48): 232.5 and 252.5 and 73.5 and 255.0 and 135.0 and 63.0
  AVG AH (FR96): 203.5 and 351.0 and 57.0 and 198.0 and 210.5 and 36.0
  AVG IH (FR1_D1 to D4): 10.3 and 8.8 and 13.3 and 5.3 and 14.8 and 7.0
  AVG IH (FR1_Last 2 FR1 days): 3.5 and 3.0 and 5.5 and 5.0 and 6.5 and 9.0
  AVG IH (FR1_Last 4 FR1 days): 10.8 and 3.5 and 9.5 and 4.8 and 11.0 and 7.5
  AVG IH (FR3): 10.0 and 7.5 and 8.5 and 8.0 and 15.0 and 9.0
  AVG IH (FR6): 6.5 and 7.0 and 9.0 and 7.5 and 13.5 and 11.0
  AVG IH (FR12): 11.0 and 9.5 and 19.0 and 5.0 and 6.0 and 4.0
  AVG IH (FR24): 11.0 and 10.0 and 15.0 and 7.5 and 8.5
  AVG IH (FR48): 8.5 and 13.5 and 12.0 and 18.0 and 9.5 and 13.0
  AVG IH (FR96): 8.5 and 18.5 and 13.5 and 14.5 and 26.0
  AVG Inf (FR1_D1 to D4): 10.8 and 9.3 and 8.0 and 12.0 and 9.5 and 10.0
  AVG Inf (FR1_Last 2 FR1 days): 14.0 and 10.0 and 11.0 and 9.0 and 7.5
  AVG Inf (FR1_Last 4 FR1 days): 12.0 and 10.0 and 9.0 and 13.3 and 9.5 and 9.3
  AVG Inf (FR3): 10.5 and 8.5 and 9.5 and 5.0 and 4.5
  AVG Inf (FR6): 7.0 and 7.5 and 6.0 and 4.0 and 3.0
  AVG Inf (FR12): 5.0 and 6.0 and 4.5 and 8.0 and 3.0
  AVG Inf (FR24): 6.0 and 5.5 and 3.0 and 7.5 and 4.0 and 2.0
  AVG Inf (FR48): 4.5 and 5.0 and 1.0 and 2.0
  AVG Inf (FR96): 1.5 and 3.0 and 0.0
  AVG Latency (FR1_D1 to D4): 2.4 and 4.0 and 9.8 and 1.3 and 2.0 and 1.1
  AVG Latency (FR1_Last 2 FR1 days): 0.271 and 0.4 and 3.0 and 0.18 and 0.74 and 1.1
  AVG Latency (FR1_Last 4 FR1 days): 0.3 and 0.277 and 3.8 and 0.6 and 1.1
